According to US7863264B2, “Stabilised compositions having antibacterial activity” (Coloplast A/S, priority 2000, dated 2011):

Tests used:
[1] = UV light stability test (visual and CIE-Lab colour measurement); format: physicochemical; design: key to Dist. (distance in CIE-Lab colour space): Dist = √(ΔL²+Δa²+Δb²) in CIE-Lab, before vs after UV; details: for Visual evaluation of complexes after UV-irradiation: UV lamp 30 minutes, cut off approx. 280 nm; for L2 (CIE-Lab colour coordinate L) / b2 (CIE-Lab colour coordinate b) / a2 (CIE-Lab colour coordinate a): after 30 minutes UV irradiation; for L1 (CIE-Lab colour coordinate L) / b1 (CIE-Lab colour coordinate b) / a1 (CIE-Lab colour coordinate a): before irradiation; for Dist. (distance in CIE-Lab colour space): before vs after 30 minutes UV irradiation
Procedure: 1.5 g of complex was placed in a 50 mm Pyrex petri dish. This was covered with a 56 mm Pyrex lid with a UV-cut off at approx. 280 nm and placed 100 mm under a UV lamp (UVASPOT) 400/T 450W metal halide high pressure lamp, Dr. K. Hönle GmbH) for 30 minutes.
The colour was measured, with a Minolta CR300 colour measurement apparatus (CIE-Lab colour coordinates) before (1) and after (2) irradiation. Measurements were made approx. 1 mm above the complex. The distance in colour-space was calculated using the formula Dist=√{square root over (ΔL^2+Δa^2+Δb^2)}, where “L”, “a”, and “b” are the CIE-Lab Colour Coordinates Solubility for 1:1 Complexes:
Compounds according to the production in example 4 were assessed for stability against UV-light (wave length >280 nm). Milled powders were spread in a 1 mm thick layer in ordinary petri dishes and illuminated by the UV-light for 30 minutes.

[2] = Solubility for 1:1 complexes (silver by atomic absorption spectroscopy); details: Complex Ag:ligand 1:1; purified water
Procedure: The tube is placed on a vortex mixer for 1 h (1500 min^−1) and the tube is centrifuged (3000 min^−1/30 min). The water is decanted off and discarded, and another 10 ml purified water is added. This is repeated 2 times, and after the third centrifugation, the liquid decanted off is filtered (0.22 mm PVDF), preserved with nitric acid and the silver concentration is determined by atomic absorption spectroscopy after appropriate dilution.
Determination of solubility of complexes of silver with various ligands.

Compound	Visual evaluation of complexes after UV-irradiation [1]	L2 (CIE-Lab colour coordinate L) [1]	b2 (CIE-Lab colour coordinate b) [1]	L1 (CIE-Lab colour coordinate L) [1]	b1 (CIE-Lab colour coordinate b) [1]	Dist. (distance in CIE-Lab colour space) [1]	a2 (CIE-Lab colour coordinate a) [1]	a1 (CIE-Lab colour coordinate a) [1]	discolouration of the product ([1]; complex made according to U.S. Pat. No. 2,336,131, UV test not meaningful)	Solubility [2] [mg Ag/l]
Silver 5,5-diethyl-hydantoinate [Ag/5,5-diethyl-hydantoin]	White/no trace of discolouration	94.05	2.03	96.76	0.67	3.05	–	–	–	–
CC1(C)NC(=O)[N-]C1=O.[Ag+] [Ag/5,5-dimethyl-hydantoin, Silver 5,5-dimethyl-hydantoinate]	White/no trace of discolouration	96.84	0.39	94.96	0.12	1.90	–	–	–	–
O=C1CNC(=O)[N-]1.[Ag+] [Ag/hydantoin, Silver hydantoinate, reference compound]	Dark brown/heavily discoloured	26.03	12.84	96.67	2.62	72.17	10.75	0.06	–	–
Silver allantoinate [Ag-allantoin 1:1, reference compound]	Dark brown/heavily discoloured	32.7	28.41	92.98	2.3	67.44	14.71	–	discoloured extremely easily	–
CC(=O)N1C(=O)[N-]C(=O)C1(C)C.[Ag+] [Ag/1-acetyl-5,5-dimethyl-hydantoin, Silver 1-acetyl-5,5-dimethyl-hydantoinate]	–	–	–	–	–	–	–	–	–	1.100
Silver 5-methyl-5-isobutyl-hydantoinate [Ag/5-isobutyl-5-methyl-hydantoin]	White/no trace of discolouration	92.65	1.74	92.4	0.42	1.36	–	0.03	–	–
